A short description of assay [1]: yeast lifespan-shortening chemical project counter-assay, dose-response inhibition of growth under permissive conditions (AID 850).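 Also: growth read as optical density after one day of incubation.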 Particulars: Saccharomyces cerevisiae growth inhibition, permissive control, measured here: maximum growth inhibition, stronger effect = higher value.
Assay [2] has as its system Saccharomyces cerevisiae growth inhibition, permissive control. The assay is described as above.

The term inhibition denotes how much of the control response was suppressed. In general, IC50 refers to the midpoint of a concentration-inhibition curve.

The source made the active and inactive calls. No rule for the calls is given here. Bounds are passed on as bounds.

On to `COc1ccccc1OCC(=O)n1cc(C(=O)c2cc(Cl)cc(Cl)c2O)cn1`, for which the inhibition in assay [1] (at 50 µM) was 100%. Also, the IC50 in assay [2] is 4.72 µM.
On to `Cc1cccc(CSc2cccc3cccnc23)c1`, for which the inhibition in assay [1] (at 50 µM) came out at 99.4%. Besides, the IC50 in assay [2] was 13.8 µM.
On the same counts, the results for `COc1ccc(/C=C/C(=O)c2cc(Br)ccc(=O)c2O)cc1` are 93.6% and 16.1 µM.
In turn, `Cc1nc2cc3ccccc3cc2c(=O)[nH]1` showed an inhibition in assay [1] (at 0.781 µM) of 13.9%. For the same compound, the IC50 in assay [2] was > 100 µM (inactive).
On to `Cc1ccc(C(=O)c2c(C)oc3c2C(=O)C(=O)c2ccccc2-3)cc1`, for which the inhibition in assay [1] (at 50 µM) amounted to 95.5%. Besides, in assay [2], the IC50 is 43.6 µM.
In turn, `CCOC(=O)C1CCCCN1C(=O)CCc1c(C)nc2cc(-c3ccccc3)nn2c1C` (stereo not drawn) gave an inhibition in assay [1] (at 25 µM) of 21.6%. Further, the IC50 in assay [2] was > 100 µM (inactive).
For `CCSc1nc(N)nc(-c2cccs2)c1C#N`, the inhibition in assay [1] (at 50 µM) was determined as 70.4%. For the same compound, in assay [2], the IC50 is 35.2 µM.
Consider `Cc1ccc(C(=O)O)cc1N=Cc1cc(Br)cc(Br)c1O`, for which, in assay [1] (at 50 µM), the inhibition came to 97.1%. Besides, the IC50 in assay [2] was 6.04 µM.
On the same counts, the results for `Nc1nsc2ccccc12` are 63.5% and 35.8 µM.
`Cc1ccc(-c2nnc3ccc(SC(C)C(=O)O)nn23)cc1` (stereo not drawn) gave an inhibition in assay [1] (at 6.25 µM) of 10.5%. Besides, the IC50 in assay [2] was > 100 µM (inactive).
`CCOC(=O)c1c(N)sc(C(O)(C(F)(F)F)C(F)(F)F)c1-c1ccc(F)cc1` showed an inhibition in assay [1] (at 0.098 µM) of 8.89%. Moreover, in assay [2], the IC50 was > 100 µM (inactive).
In assay [1] (at 50 µM), `COc1ccccc1C(=O)NNC(=S)NC(=O)c1ccco1` gave an inhibition of 29.3%. Further, the IC50 in assay [2] was > 100 µM (inactive).
`COc1ccc(C(=O)NC(=S)NNC(=O)c2cnccn2)cc1OC` gave an inhibition in assay [1] (at 25 µM) of 47.1%. Besides, the concentration for half-maximal inhibition (IC50) in assay [2] was 46.5 µM.
Take `Oc1ccc(/C=C/c2nc(-c3ccccc3O)n(-c3ccccc3)n2)cc1`: the inhibition in assay [1] (at 50 µM) was 54.3%. Moreover, in assay [2], the concentration for half-maximal inhibition (IC50) was 47.1 µM.
With `CCOC(=O)c1c(/N=C/c2cccc([N+](=O)[O-])c2O)sc(C)c1C`, in assay [1] (at 50 µM), the inhibition worked out at 58.5%. Further, the IC50 in assay [2] was 30.7 µM.
Compound `COc1ccc(N)c2c1C(=O)c1ccccc1C2=O` showed an inhibition in assay [1] (at 25 µM) of 22.5%. Besides, the IC50 in assay [2] was > 100 µM (inactive).
`O=C1C=C(c2ccc(Cl)cc2)C(=O)N1Nc1ccccc1` returned an inhibition in assay [1] (at 50 µM) of 99.4%. Further, the IC50 in assay [2] is 6.75 µM.
With `CCCCC(=O)NNC(=S)NC(=O)CCC`, in assay [1] (at 50 µM), the inhibition came to 75.2%. The IC50 in assay [2] is 29.7 µM.
The matching figures for `O=[N+]([O-])c1ccc(Cl)c(S(=O)(=O)N2CCCCCC2)c1`: 58.1% and 31.8 µM.
The matching figures for `O=C(Nc1cccc(N=Cc2cc(Br)cc(Br)c2O)c1)c1ccco1`: 100% and 11.1 µM.
On the same counts, the results for `C=CCN1C(=O)/C(=C/c2cccs2)C(=O)NC1=S` are 99.8% and 6.15 µM.
Take `CCOC(=O)c1c(/N=C/c2cc([N+](=O)[O-])ccc2O)sc(C)c1C`: in assay [1] (at 25 µM), the inhibition was determined as 52.7%. Also, the IC50 in assay [2] is 39.9 µM.
With `COC1=C(c2ccccc2)C(=O)c2ccccc2C1=O`, the inhibition in assay [1] (at 50 µM) came out at 96.4%. The IC50 in assay [2] is 19.8 µM.
In assay [1] (at 50 µM), `O=C(O)c1cc2c(s1)-c1ccccc1CC2` came in with an inhibition of 47.3%. For the same compound, the IC50 in assay [2] is 50.5 µM.
The compound `CCCCS(=O)(=O)/C=C\C=C/S(=O)(=O)CCCC` returned an inhibition in assay [1] (at 6.25 µM) of 21.2%. Also, the IC50 in assay [2] is > 100 µM (inactive).
Consider `O=Nc1c(O)n(Cc2ccc(Cl)c(Cl)c2)c2ccccc12`, for which the inhibition in assay [1] (at 50 µM) turned out to be 58.3%. In addition, the IC50 in assay [2] was 43.1 µM.
On the same counts, the results for `C/C(=N\Nc1nc2c(s1)CCCC2)c1ccccc1` are 99.1% and 28.2 µM.
In the case of `COc1ccc(OCCNC2CCCC2)cc1`, the inhibition in assay [1] (at 0.195 µM) amounted to 7.53%. For the same compound, the IC50 in assay [2] is > 100 µM (inactive).
In assay [1] (at 1.563 µM), `O=C(O)CCSc1nnc(-c2ccccc2)n1-c1ccccc1` showed an inhibition of 15.8%. In addition, the IC50 in assay [2] was > 100 µM (inactive).
In assay [1] (at 25 µM), `COc1cccc2c(=O)c3c(cnn3C)n(C)c12` had an inhibition of 21.2%. Besides, in assay [2], the IC50 is > 100 µM (inactive).
On the same counts, the results for `CNc1nnc(-c2cc3cc(Cl)ccc3oc2=O)s1` are 12.5% and > 100 µM (inactive).
`O=C(Cc1ccccc1)NCCc1cn2ccsc2n1`: the inhibition in assay [1] (at 0.391 µM) amounted to 26%. Also, the IC50 in assay [2] is > 100 µM (inactive).
As to `c1cncc(-c2nnc(-c3cccnc3)nn2)c1`, the inhibition in assay [1] (at 50 µM) was determined as 90.5%. The IC50 in assay [2] is 26.3 µM.
Compound `Nc1nc2sc3c(c2c(=O)s1)CCCC3` displayed an inhibition in assay [1] (at 0.195 µM) of 24.4%. Besides, the IC50 in assay [2] was > 100 µM (inactive).
Take `Cc1ccc(C(=O)O/N=C/c2c(N3CCOCC3)n(C)c3ccccc23)cc1`: the inhibition in assay [1] (at 6.25 µM) stood at 18.7%. Further, the IC50 in assay [2] is > 100 µM (inactive).
In turn, `O=C(Nc1nc(-c2ccccn2)cs1)c1ccc(Br)s1` gave an inhibition in assay [1] (at 12.5 µM) of 99.4%. The IC50 in assay [2] is 5.55 µM.
For the compound `Cc1nn(-c2cccc(C(F)(F)F)c2)c(Cl)c1/C=N/Nc1cccc(C(=O)O)c1`, in assay [1] (at 50 µM), the inhibition came out at 81.6%. For the same compound, in assay [2], the half-inhibitory concentration (IC50) is 41.2 µM.
With `Oc1ccc(CN2CCCCC2)c2cccnc12`, the inhibition in assay [1] (at 50 µM) stood at 37.4%. Besides, in assay [2], the IC50 is 51.8 µM.
On the same counts, the results for `O=C(Oc1ccc(Cl)c2cccnc12)c1ccco1` are 100% and 12.4 µM.
In assay [1] (at 50 µM), `Fc1ccc2nc3[nH]c4ccccc4c3nc2c1` displayed an inhibition of 20.7%. Besides, in assay [2], the IC50 was > 100 µM (inactive).
In turn, `O=S(=O)(NC1CC2CCC1C2)c1ccc(Br)s1` (stereo not drawn) came in with an inhibition in assay [1] (at 12.5 µM) of 99%. Further, the IC50 in assay [2] was 1.28 µM.
For the compound `CN1CCN(C2=Cc3ccc(Cl)cc3Sc3ccc(F)cc32)CC1`, in assay [1] (at 50 µM), the inhibition came out at 99.8%. Moreover, the IC50 in assay [2] is 27.2 µM.
With `Nc1ccc(O)c2c1C(=O)c1ccccc1C2=O`, the inhibition in assay [1] (at 25 µM) came to 16.4%. The IC50 in assay [2] was > 100 µM (inactive).
`CC(C)Sc1nc(N)nc(-c2cccs2)c1C#N` returned an inhibition in assay [1] (at 1.563 µM) of 14.6%. For the same compound, the IC50 in assay [2] was > 100 µM (inactive).
`Cc1cccc(C(=O)NC(=S)NNC(=O)c2cccs2)c1`: the inhibition in assay [1] (at 50 µM) came to 76%. The IC50 in assay [2] was 19.9 µM.
For the compound `Cc1nc2ccc(C(=O)O)cc2[nH]1`, the inhibition in assay [1] (at 0.391 µM) was 27.5%. Moreover, in assay [2], the IC50 is > 100 µM (inactive).
`Cc1ccc(-n2c(C)cc(C(=O)COC(=O)c3ccc[nH]c3=O)c2C)cc1` yielded an inhibition in assay [1] (at 50 µM) of 67%. Moreover, the IC50 in assay [2] is 27.7 µM.
The matching figures for `Oc1ccc(/C=N/N=C(c2ccccc2)c2ccccc2)c(O)c1O`: 79.8% and 30.1 µM.
The compound `c1ccc(-c2ccc(OCCCn3cncn3)cc2)cc1` had an inhibition in assay [1] (at 25 µM) of 57.7%. Also, in assay [2], the half-maximal inhibitory concentration (IC50) was 34.1 µM.
Consider `CN1C(=O)C2(N=c3ccccc3=N2)c2ccccc21`, for which the inhibition in assay [1] (at 50 µM) was determined as 21.4%. In assay [2], the IC50 was > 100 µM (inactive).
`Cc1ccc2[nH]c3c(c2c1)CCc1cn[nH]c1-3` registered an inhibition in assay [1] (at 50 µM) of 98.6%. In addition, in assay [2], the IC50 was 14.7 µM.
On the same counts, the results for `Oc1ccc(Cl)cc1Cc1cc(Cl)ccc1O` are 99% and 25.8 µM.
Consider `CCS(=O)(=O)n1nc(-c2ccc(Cl)cc2)nc1SCc1ccccc1`, for which, in assay [1] (at 50 µM), the inhibition is 15%. For the same compound, the IC50 in assay [2] was > 100 µM (inactive).
`COc1ccc(NC(=O)CC2SC(=Nc3ccccc3)NC2=O)c(OC)c1` (stereo not drawn) registered an inhibition in assay [1] (at 25 µM) of 23.9%. The IC50 in assay [2] is > 100 µM (inactive).
Take `CCCS(=O)(=O)c1nnnn1-c1cccc(OC)c1`: the inhibition in assay [1] (at 50 µM) worked out at 99%. The concentration for half-maximal inhibition (IC50) in assay [2] was 5.29 µM.
Take `NNC(=O)c1ccc(COc2cccc3ccccc23)cc1`: in assay [1] (at 50 µM), the inhibition came out at 94.7%. Moreover, in assay [2], the IC50 is 20 µM.
Regarding `COc1ccc(S(=O)(=O)n2oc(=O)cc2-c2ccccc2)cc1OC`, the inhibition in assay [1] (at 1.563 µM) is 9.27%. Moreover, in assay [2], the IC50 is > 100 µM (inactive).
On to `Cc1ccccc1N=Cc1cccc(O)c1O`, for which the inhibition in assay [1] (at 50 µM) is 99.2%. The concentration for half-maximal inhibition (IC50) in assay [2] was 7.59 µM.
On the same counts, the results for `Cn1c(C(C#N)C(=O)c2ccco2)nc2ccccc21` (stereo not drawn) are 17.5% and > 100 µM (inactive).
`Clc1ccc(N/N=C/c2cccnc2)cc1` showed an inhibition in assay [1] (at 25 µM) of 78.3%. The half-maximal inhibitory concentration (IC50) in assay [2] is 19 µM.
Turning to `Nc1c(C(=O)NCCc2ccccc2)c2nc3ccccc3nc2n1CCN1CCOCC1`, in assay [1] (at 50 µM), the inhibition was found to be 99.8%. The half-maximal inhibitory concentration (IC50) in assay [2] was 42.4 µM.
In assay [1] (at 50 µM), `c1cnc2c(c1)ccc1cccnc12` came in with an inhibition of 100%. Besides, the IC50 in assay [2] was 8.23 µM.
On the same counts, the results for `CCOCC(=O)Nc1nc2c(s1)C(=O)CC(C)(C)C2` are 1.4% and > 100 µM (inactive).
Turning to `Cc1cccc(OCCn2cc(/C=N/NC(=O)c3ccncc3)c3ccccc32)c1`, the inhibition in assay [1] (at 0.781 µM) turned out to be 10%. In addition, in assay [2], the IC50 was > 100 µM (inactive).
In assay [1] (at 50 µM), `CN1C(=O)/C(=N/OC(=O)c2ccccc2)c2ccccc21` gave an inhibition of 90.8%. The IC50 in assay [2] is 46.3 µM.
The matching figures for `Cc1ccccc1NC(=S)c1nc2ccccc2[nH]1`: 95.3% and 11.8 µM.
Compound `CCC(C)/C(C)=N/NC(=O)c1ccc(COc2ccc(Cl)c(C)c2)cc1` (stereo not drawn) registered an inhibition in assay [1] (at 50 µM) of 83.8%. The IC50 in assay [2] was 27 µM.
`CC(NC(=O)Nc1ccc(Cl)cc1)C(c1cccs1)N1CCOCC1` (stereo not drawn) showed an inhibition in assay [1] (at 0.781 µM) of 8.7%. In assay [2], the IC50 is > 100 µM (inactive).
Take `COC(=O)c1ccc(CSc2ccc3nnc(-c4cccc(F)c4)n3n2)o1`: in assay [1] (at 6.25 µM), the inhibition was found to be 17.7%. The IC50 in assay [2] is > 100 µM (inactive).

(Values after PubChem BioAssay AID850 (SRMLSC, 2007).)
